Experimental data from patent US4350700A, “Pharmaceutical composition containing 1,3,5-substituted biuret compound” (Taiho Pharmaceutical Company, Limited, priority 1979, dated 1982).
Read-outs that look alike come from different tables or passages of the source.

Tests used:
[1] = tested on: carrageenin-induced inflammation of the hindpaw of the rat; assay: Anti-inflammatory activity, acute carrageenin-induced inflammatory test; type: in vivo, rats (Wistar strain, male); conditions: Rattus norvegicus, read-out: Anti-inflammatory activity, inflammation inhibitory ratio
Procedure: (§1) Next, several tests for determining the pharmacological properties, in that acute toxicity, anti-pyretic activity, analgesic activity and anti-inflammatory activity of the present 1,3,5-substituted biuret compounds of the formula (1) were conducted and the test results are shown in Table (2). In the tests, each compounds to be tested was used as a suspension in 0.25% carboxymethylcellulose solution. Methods for testing are explained as follows:
4. Anti-inflammatory Activity
According to the method of acute carrageenin-induced inflammatory test [Folia Pharmacologia Japonica, Vol. 56, pp. 575 (1960)], the Wistar strain of male rats (body weight, 150-180 g) were used as test animals. The rats were fasted overnight, 100 mg/kg body weight of the test compound was administered orally, then 1 hour after the administration, 0.1 ml of 1% carrageenin solution, as the inflammation inducing agent, was injected subcutaneously to the hindpaw of the rat and the volume of the hindpaw was measured at time sequences. Anti-inflammatory activity of the test compound was calculated as inflammation inhibitory ratio (%) at 3 hours after the injection of inflammation inducing agent.

[2] = tested on: pain reaction of the mouse caused by a clamp; assay: Analgesic activity, Haffner method; type: in vivo, mice (ddy strain, male); conditions: mice
Procedure: as §1
According to the modified method reported by Fujimura et al., [Bulletin of the Institute for Chemical Research, Kyoto University, No. 25, pp. 36 (1951)], the ddy strain of male mice (body weight, 20-25 g) were used as test animals. The mice were fasted overnight, 100 mg/kg body weight of the test compound was administered orally, then 45 minutes after the administration, the threshhold amount (1.5-2.5 mg/kg body weight) of morphine hydrochloride was injected subcutaneously. Then 1-hour pain reaction of the mouse caused by a clamp was observed. Analgesic activity of the test compound was calculated as the inhibitory ratio (%). In Table 2, the values in parentheses show the data obtained from the test by using the dosage other than 100 mg/kg body weight. Further, the values indicated with Δ marks show 50% effective dose, ED50 (mg/kg body weight).

[3] = tested on: acetic acid-induced stretching symptom of mouse; assay: Analgesic activity, acetic acid-induced stretching method; type: in vivo, mice (ddy strain, male); conditions: read-out: Analgesic activity, acetic acid-induced stretching method, inhibitory ratio
Procedure: as §1
(1) Acetic acid-induced stretching method
According to the method reported by Koster et.al., [Fed. Proc., Vol. 18, pp. 412 (1959)], the ddy strain of male mice (body weight, 20-25 g) were used as test animals. The mice were fasted overnight, 100 mg/kg body weight of the test compound was administered orally, then 1 hour after the administration, 0.2 ml of 0.7% acetic acid solution was injected intraperitoneally. The acetic acid-induced stretching symptom of mouse was observed. Analgesic activity of the test compound was calculated as the inhibitory ratio (%). In Table 2, the values in parentheses show the data obtained from the test by using the dosage other than 100 mg/kg body weight. Further, the values indicated with Δ marks show 50% effective dose, ED50 (mg/kg body weight).

[4] = tested on: 10% dry-yeast suspension-induced fever of rats; assay: Anti-pyretic activity (dry-yeast induced fever, febril index); type: in vivo, rats (Wistar strain, male); conditions: oral, febril index up to 4 hours after administration, dose not stated
Procedure: as §1
According to the method reported by Tanabe [Folia Pharmacologia Japonica, Vol. 73, pp. 803 (1977)], the Wistar strain of male rats (150-180 g body weight) were used as test animals. The rats were fasted overnight, and 1 ml/100 g (body weight) of 10% dry-yeast suspension were subcutaneously injected on the back of the rats. Five hours afte the injection, the test compound was administered orally, then the body temperature of the rat was measured time sequences. Anti-pyretic activity of the test compound was determined as the FI (febril index) by integrating pyrogenetic curve up to 4 hours after the administration of the test compound with time, and indicated as inhibitory ratio (%) shown by the following formula, [formula]

ddy strain of male mice = assay: Acute toxicity (oral, general symptom and death observed for 7 days); type: in vivo; conditions: 7 days
Procedure: as §1
The ddy strain of male mice (body weight, 20-25 g) were used as test animals. The mice were fasted overnight and the compound to be tested was administered orally. […] The lethal dose (mg/kg, body weight) of the test compound was determined in connection with the death number of mice/the number of mice tested. In Table 2, the values indicated with Δ marks are 50% lethal dose, LD50 (mg/kg, body weight).

[5] = 100 mg/kg oral, rats, 3 hours after carrageenin

Structure (SMILES): CCCCNC(=O)N(C)C(=O)Nc1ccccc1 [Compound No. 47]
- inhibition in vivo at 100 mg/kg [1, 5]: 27%
- Analgesic activity, Haffner method, inhibitory ratio ([2]; 100 mg/kg oral): 62.5%
- inhibition in vivo at 100 mg/kg ([3]; po): 75%
- Anti-pyretic activity, inhibitory ratio [4]: 19%
- Acute toxicity, death number of mice/number of mice tested (ddy strain of male mice; 2000 mg/kg oral): 0/4

Structure (SMILES): CNC(=O)N(C)C(=O)Nc1ccc(CC(=O)O)cc1 [compound 11, 1,3-Dimethyl-5-(4-carboxymethylphenyl)biuret]
- Analgesic activity, Haffner method, inhibitory ratio ([2]; 100 mg/kg oral): 37.5%
- inhibition in vivo at 100 mg/kg ([3]; po): 25%
- Anti-pyretic activity, inhibitory ratio [4]: 7%
- Acute toxicity, death number of mice/number of mice tested (ddy strain of male mice; 2000 mg/kg oral): 0/4

Structure (SMILES): CCCNC(=O)N(C)C(=O)Nc1ccccc1 [Compound No. 41, 1-n-Propyl-3-methyl-5-phenylbiuret]
- inhibition in vivo at 100 mg/kg [1, 5]: 67%
- Analgesic activity, Haffner method, inhibitory ratio ([2]; 100 mg/kg oral): 37.5%
- inhibition in vivo at 100 mg/kg ([3]; po): 62.5%
- Anti-pyretic activity, inhibitory ratio [4]: 65%
- Acute toxicity, death number of mice/number of mice tested (ddy strain of male mice; 2000 mg/kg oral): 0/4

Structure (SMILES): CNC(=O)N(C)C(=O)Nc1ccccc1C(F)(F)F [compound 7, 1,3-Dimethyl-5-(2-trifluoromethylphenyl)biuret]
- Analgesic activity, Haffner method, inhibitory ratio ([2]; 100 mg/kg oral): 12.5%
- inhibition in vivo at 100 mg/kg ([3]; po): 62.5%
- Anti-pyretic activity, inhibitory ratio [4]: 121%
- Acute toxicity, death number of mice/number of mice tested (ddy strain of male mice; 1000 mg/kg oral): 0/4
- Acute toxicity, death number of mice/number of mice tested (ddy strain of male mice; 2000 mg/kg oral): 3/4

Structure (SMILES): CCC(C)NC(=O)N(C)C(=O)Nc1ccccc1 (centres unmarked) [compound 50, 1-(1-Methylpropyl)-3-methyl-5-phenylbiuret]
- inhibition in vivo at 100 mg/kg ([1]; po, 3 h): 47%
- Analgesic activity, Haffner method, inhibitory ratio ([2]; 100 mg/kg oral): 25%
- inhibition in vivo at 100 mg/kg ([3]; po): 62.5%
- Anti-pyretic activity, inhibitory ratio [4]: 27%
- Acute toxicity, death number of mice/number of mice tested (ddy strain of male mice; 2000 mg/kg oral): 0/4

Structure (SMILES): CCNC(=O)N(C)C(=O)Nc1ccc(OC)cc1 [compound 35, 1-Ethyl-3-methyl-5-(4-methoxyphenyl)biuret]
- inhibition in vivo at 100 mg/kg [1, 5]: 19%
- Analgesic activity, Haffner method, inhibitory ratio ([2]; 100 mg/kg oral): 62.5%
- inhibition in vivo at 100 mg/kg ([3]; 100 mg/kg oral, mice): 87.5%
- Anti-pyretic activity, inhibitory ratio [4]: 112%
- Acute toxicity, death number of mice/number of mice tested (ddy strain of male mice; 1000 mg/kg oral): 0/4
- Acute toxicity, death number of mice/number of mice tested (ddy strain of male mice; 2000 mg/kg oral): 4/4

Structure (SMILES): CCNC(=O)NC(=O)Nc1ccc(Cl)c(Cl)c1 [compound 27, 1-Ethyl-5-(3,4-dichlorophenyl)biuret]
- inhibition in vivo at 200 mg/kg ([1]; po, 3 h): 44%
- Analgesic activity, Haffner method, inhibitory ratio ([2]; 200 mg/kg oral): 12.5%
- inhibition in vivo at 200 mg/kg ([3]; po): 12.5%
- Acute toxicity, death number of mice/number of mice tested (ddy strain of male mice; 1000 mg/kg oral): 0/4
- Acute toxicity, death number of mice/number of mice tested (ddy strain of male mice; 2000 mg/kg oral): 1/4

Structure (SMILES): CCNC(=O)N(C)C(=O)Nc1ccc(F)cc1 [compound 32, 1-Ethyl-3-methyl-5-(4-fluorophenyl)biuret]
- Analgesic activity, Haffner method, inhibitory ratio ([2]; 100 mg/kg oral): 37.5%
- inhibition in vivo at 100 mg/kg ([3]; 100 mg/kg oral, mice): 100%
- Anti-pyretic activity, inhibitory ratio [4]: 63%
- Acute toxicity, death number of mice/number of mice tested (ddy strain of male mice; 1000 mg/kg oral): 2/4
- Acute toxicity, death number of mice/number of mice tested (ddy strain of male mice; 2000 mg/kg oral): 4/4

Structure (SMILES): CNC(=O)N(C(=O)Nc1ccccc1)c1ccccc1 [Compound No. 22, 1-methyl-3,5-diphenylbiuret]
- inhibition in vivo at 100 mg/kg [1, 5]: 35%
- Analgesic activity, Haffner method, inhibitory ratio ([2]; 200 mg/kg oral): 50%
- inhibition in vivo at 100 mg/kg ([3]; po): 37.5%
- Acute toxicity, death number of mice/number of mice tested (ddy strain of male mice; 2000 mg/kg oral): 0/4

Structure (SMILES): CONC(=O)N(C)C(=O)Nc1ccccc1 [compound 63, 1-Methoxy-3-methyl-5-phenylbiuret]
- inhibition in vivo at 100 mg/kg ([1]; po, 3 h): 50%
- Analgesic activity, Haffner method, inhibitory ratio ([2]; 100 mg/kg oral): 25%
- inhibition in vivo at 100 mg/kg ([3]; po): 50%
- Acute toxicity, death number of mice/number of mice tested (ddy strain of male mice; 1000 mg/kg oral): 0/4
- Acute toxicity, death number of mice/number of mice tested (ddy strain of male mice; 2000 mg/kg oral): 4/4

Structure (SMILES): CCNC(=O)NC(=O)Nc1ccccc1 [Compound No. 23, 1-ethyl-5-phenylbiuret]
- inhibition in vivo at 100 mg/kg [1, 5]: 49%
- Analgesic activity, Haffner method, inhibitory ratio ([2]; 200 mg/kg oral): 60%
- inhibition in vivo at 100 mg/kg ([3]; po): 62.5%
- Acute toxicity, death number of mice/number of mice tested (ddy strain of male mice; 2000 mg/kg oral): 0/4
